Measurements published in US9757320B2, “Oral care composition” (Colgate-Palmolive Company, priority 2012, dated 2017).

Experiments:
A. viscuosus = test: Minimum inhibitory concentration test: optical density at 610 nm of A. viscuosus in tryptic soy broth, 96 well plate; assay type: cell-based; settings: 37° C. for 18 hours
Method: Stock solutions of the zinc ascorbyl phosphate of Example 1, ascorbyl phosphate, zinc oxide, and the zinc-lysine complex were each prepared in water. The concentration of active ingredient in each solution was 0.1 M. Aliquots of each test solution (200 μL) were placed in the first row of a 96 well plate. Serial dilutions of the stock solutions were prepared on the plate by mixing the stock solutions with tryptic soy broth on a 1:1 basis. The concentrations of active ingredient prepared on this basis varied from 50 mM to 0.00488 mM.
A solution of A. viscuosus with an optical density of 0.2 at 610 nm was prepared. Aliquots of the A. viscuosus solution (100 μL) were then added to each test well. Four control wells containing TSB buffer and A. viscuosus solution were prepared. Four blank wells containing TSB buffer alone were also prepared.
The plate was then incubated at 37° C. for 18 hours. The optical density of each well at 610 nm was then recorded using a plate reader.

[1] = cited from earlier work
[2] = 50 mM active ingredient, lower reading = improved antibacterial effect

| Molecule | optical density reading (A. viscuosus; 0.005 mM active ingredient) | optical density reading (A. viscuosus; 0.00977 mM active ingredient) | optical density reading (A. viscuosus; 0.195 mM active ingredient) | optical density reading (A. viscuosus; 0.391 mM active ingredient) | optical density reading (A. viscuosus; 0.781 mM active ingredient) | optical density reading (A. viscuosus; 1.563 mM active ingredient) | optical density reading (A. viscuosus; 3.125 mM active ingredient) | optical density reading (A. viscuosus; 6.25 mM active ingredient) | optical density reading (A. viscuosus; 12.5 mM active ingredient) | optical density reading (A. viscuosus; 25 mM active ingredient) | optical density reading (A. viscuosus; [2]) | solubility under aqueous conditions [1] |
| --- | --- | --- | --- | --- | --- | --- | --- | --- | --- | --- | --- | --- |
| zinc-lysine complex | 0.68 | 0.71 | 0.69 | 0.65 | 0.58 | 0.44 | 0.34 | 0.15 | 0.20 | 0.35 | 0.56 | – |
| CCCCCCCCCCCCCCCC(=O)OC[C@H](O)[C@H]1OC(=O)C(O)=C1O [Ascorbyl Palmitate] | 0.70 | 0.71 | 0.71 | 0.69 | 0.70 | 0.70 | 0.68 | 0.69 | 0.72 | 0.68 | 0.64 | – |
| [O]=[Zn] [Zinc Oxide, zinc oxide] | 0.68 | 0.68 | 0.67 | 0.66 | 0.60 | 0.45 | 0.33 | 0.29 | 0.40 | 0.65 | 1.55 | poorly soluble |
